Literature values in US11470860B2, “Animal feeds containing specific glycolipids” (PATHWAY INTERMEDIATES LIMITED, priority 2016, dated 2022).

Settings: for stability versus pH: aqueous medium

stability versus pH | Structure (SMILES) | solubility in aqueous medium (dependence on pH)
instability at pH higher than 7.0 | CC(CCCCCC/C=C\CCCCCCCC(=O)O)OC1OC(CO)C(O)C(O)C1OC1OC(CO)C(O)C(O)C1O (stereo not drawn) [Acidic sophorolipids] | not readily soluble in aqueous medium at acidic pH but become soluble at higher pH
stable across a wider pH range | CC1CCCCCC/C=C\CCCCCCCC(=O)OC2C(CO)OC(OC3C(O1)OC(CO)C(O)C3O)C(O)C2O (stereo not drawn) [lactonised sophorolipids] | 
